In one test the target is DGKalpha (Homo sapiens, UniProt P23743). Briefly: In vitro DGK inhibition assay (ADP-Glo, liposomes), DGKalpha. Particulars: 4 nM DGK α, 25 μM ATP, 125 uM DLG in liposomes, 1 hour reaction. Also on record: hDGKalpha(1-735)-N-His; His (N); made in house; host or cells: Sf21 insect cells (baculovirus). It is filed as biochemical. Summed up:
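Full-length human DGKα (4 nM) or DGKζ (2 nM) from Sf21 cells, with DLG substrate at 125 uM in PS/PC liposomes and ATP at 25 μM (α) or 50 μM (ζ); 1 h reaction. ADP formed read by ADP-Glo luminescence; compounds 11-point, 1:3 dilutions from 10 mM, 2% DMSO final.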
For orientation: ADP-Glo first removes unused ATP, then detects ADP through luciferase.

In a further test the test system is primary human T-cells. Briefly: IL2 secretion measurements in CD3-stimulated T-cells. It is filed as cell-based. Particulars: Homo sapiens, T-cell, 24 h, CD3 condition; for Emax: IL2 after 24 hours, 20 μM reference compound A1 = 100%, read-out: Emax IL2 (% activation); for EC50: IL2 secretion after 24 hours, read-out: Tcell IL2 CD3 EC50. The method, boiled down:
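Expanded primary human T-cells (100k/well) were stimulated on CD3 antibody-coated or PBS-coated plates with compounds in 5–6 point dose response from 20 or 10 μM top final (dilution factor 3.333, 0.2% DMSO final). IL2 in 24 h supernatants was measured by ProQuantum immunoassay or ELISA, normalized to DMSO (0%) and 20 μM reference compound A1 (100%) to fit EC50 and Emax.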

Sequence of DGKalpha (P23743 whole entry): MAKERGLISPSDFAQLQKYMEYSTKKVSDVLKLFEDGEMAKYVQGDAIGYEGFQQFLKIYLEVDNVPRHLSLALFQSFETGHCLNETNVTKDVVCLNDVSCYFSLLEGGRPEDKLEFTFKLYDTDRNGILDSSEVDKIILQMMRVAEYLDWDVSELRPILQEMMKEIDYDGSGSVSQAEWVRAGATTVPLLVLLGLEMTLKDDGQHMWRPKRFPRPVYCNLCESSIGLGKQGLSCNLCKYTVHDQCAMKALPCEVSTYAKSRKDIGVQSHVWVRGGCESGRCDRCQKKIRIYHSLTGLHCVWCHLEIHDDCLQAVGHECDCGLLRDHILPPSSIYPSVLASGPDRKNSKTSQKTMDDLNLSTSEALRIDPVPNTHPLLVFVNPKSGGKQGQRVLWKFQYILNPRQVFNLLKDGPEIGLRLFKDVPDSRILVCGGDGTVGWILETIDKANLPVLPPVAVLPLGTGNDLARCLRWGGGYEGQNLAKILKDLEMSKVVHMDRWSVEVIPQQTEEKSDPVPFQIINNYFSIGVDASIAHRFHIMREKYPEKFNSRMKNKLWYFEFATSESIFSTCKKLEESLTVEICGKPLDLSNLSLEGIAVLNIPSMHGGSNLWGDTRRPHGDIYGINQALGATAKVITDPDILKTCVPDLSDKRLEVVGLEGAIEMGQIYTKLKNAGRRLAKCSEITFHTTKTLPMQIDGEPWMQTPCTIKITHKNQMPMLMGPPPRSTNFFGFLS

In the case of `CC(C)(c1nc(-c2cc3c(cc2F)S(=O)(=O)C[C@H](N)C(=O)N3Cc2ccc(OC(F)(F)F)cc2)no1)S(C)(=O)=O` [Example 44, (3R)-3-amino-8-fluoro-7-[5-(1-methyl-1-methylsulfonyl-ethyl)-1,2,4-oxadiazol-3-yl]-1,1-dioxo-5-[[4-(trifluoromethoxy)phenyl]methyl]-2,3-dihydro-1λ6,5-benzothiazepin-4-one], the IC50 on DGKalpha is 683 nM. Also, in the test with primary human T-cells, the Emax was 192% and the EC50 worked out at 325 nM.
For `CC(C)(c1nnc(-c2ccc3c(c2)N(Cc2ccc(OC(F)(F)C(F)F)cc2)C(=O)[C@@H](N)CS3(=O)=O)o1)S(C)(=O)=O` [Example 3, (3R)-3-amino-7-[5-(1-methyl-1-methylsulfonyl-ethyl)-1,3,4-oxadiazol-2-yl]-1,1-dioxo-5-[[4-(1,1,2,2-tetrafluoroethoxy)phenyl]methyl]-2,3-dihydro-126,5-benzothiazepin-4-one] the same measures were 1730 nM, 102% and 1320 nM.
On DGKalpha, `CC(C)(c1nc(-c2cc3c(cc2F)S(=O)(=O)C[C@H](N)C(=O)N3Cc2ccc(Oc3ccccc3)cc2)no1)S(C)(=O)=O` [Example 30, (3R)-3-amino-8-fluoro-7-[5-(1-methyl-1-methylsulfonyl-ethyl)-1,2,4-oxadiazol-3-yl]-1,1-dioxo-5-[(4-phenoxyphenyl)methyl]-2,3-dihydro-1λ6,5-benzothiazepin-4-one] registered a half-maximal inhibitory concentration (IC50) of 815 nM. Also, in the test with primary human T-cells, the Emax amounted to 265% and the EC50 came to 485 nM.
Take `COc1ccc(-c2ccc(CN3C(=O)[C@@H](N)CS(=O)(=O)c4cc(F)c(-c5noc(C(C)(C)S(C)(=O)=O)n5)cc43)cc2)cc1` [Example 50, (3R)-3-amino-8-fluoro-5-[[4-(4-methoxyphenyl)phenyl]methyl]-7-[5-(1-methyl-1-methylsulfonyl-ethyl)-1,2,4-oxadiazol-3-yl]-1,1-dioxo-2,3-dihydro-1λ6,5-benzothiazepin-4-one]: on DGKalpha, the IC50 amounted to 2110 nM. Besides, in the test with primary human T-cells, the maximal effect (Emax) was 99% and the EC50 came out at 216 nM.
The corresponding values for `CC(C)(c1nnc(-c2ccc3c(c2)N(Cc2ccc(OC4CCCC4)cc2)C(=O)[C@@H](N)CS3(=O)=O)o1)S(C)(=O)=O` [Example 16, (3R)-3-amino-5-[[4-(cyclopentoxy)phenyl]methyl]-7-[5-(1-methyl-1-methylsulfonyl-ethyl)-1,3,4-oxadiazol-2-yl]-1,1-dioxo-2,3-dihydro-1λ6,5-benzothiazepin-4-one] are 1510 nM, 61% and 6220 nM.
The corresponding values for `CC(C)(c1nnc(-c2ccc3c(c2)N(Cc2ccc(OCC(F)(F)F)cc2)C(=O)[C@@H](N)CS3(=O)=O)o1)S(C)(=O)=O` [Example 6, (3R)-3-amino-7-[5-(1-methyl-1-methylsulfonyl-ethyl)-1,3,4-oxadiazol-2-yl]-1,1-dioxo-5-[[4-(2,2,2-trifluoroethoxy)phenyl]methyl]-2,3-dihydro-1λ6,5-benzothiazepin-4-one] are 1780 nM, 54% and 2660 nM.
On DGKalpha, `CC(C)(c1nnc(-c2cc3c(cc2F)S(=O)(=O)C[C@H](N)C(=O)N3Cc2ccc(OC(F)(F)C(F)F)cc2)o1)S(C)(=O)=O` [Example 26, (3R)-3-amino-8-fluoro-7-[5-(1-methyl-1-methylsulfonyl-ethyl)-1,3,4-oxadiazol-2-yl]-1,1-dioxo-5-[[4-(1,1,2,2-tetrafluoroethoxy)phenyl]methyl]-2,3-dihydro-1λ6,5-benzothiazepin-4-one] gave a half-maximal inhibitory concentration (IC50) of 447 nM. For the same compound, in the test on primary human T-cells, the Emax stood at 159% and the EC50 worked out at 545 nM.
For `COc1ccc(-c2ccc(CN3C(=O)[C@@H](N)CS(=O)(=O)c4ccc(-c5nnc(C(C)(C)S(C)(=O)=O)o5)cc43)cc2)cc1` [Example 21, (3R)-3-amino-5-[[4-(4-methoxyphenyl)phenyl]methyl]-7-[5-(1-methyl-1-methylsulfonyl-ethyl)-1,3,4-oxadiazol-2-yl]-1,1-dioxo-2,3-dihydro-1λ6,5-benzothiazepin-4-one] the same measures were 1270 nM, 89% and 1240 nM.

One may read the IC50 as the point on the concentration scale where inhibition reaches its midpoint. Low readings indicate greater potency, high ones weaker potency. The term Emax denotes the greatest response seen or fitted, relative to the assay's reference. As a reminder, the EC50 is the concentration giving half of the maximal effect.

For the origin of these results see patent US20260035364A1, “BICYCLIC TETRAHYDROTHIAZEPINE DERIVATIVES” (Hoffmann-La Roche Inc., priority 2022, published 2026).
